Measured values published in patent US10273226B2, “Pyrazolyl-heteroarylamides as pesticides” (Bayer Animal Health GmbH, priority 2014, dated 2019).

Columns and labels:
Format in all cases: in vivo
Rhipicephalus sanguineus = Rhipicephalus sanguineus in vitro contact test with adult brown dog ticks; settings: application rate 5 μg/cm^2 (500 g/ha); after 48 h; ticks dead or moribund
How it was run: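 Test tubes (25 ml) were coated by dissolving active ingredient in acetone p.a., diluting to the required concentration, and spreading 250 μl over the inner walls and base on an orbital shaker at 30 rpm for 2 h. Once dry, 5-10 adult Rhipicephalus sanguineus were added, and tubes were capped with perforated lids and kept horizontal in darkness at room temperature. At 48 h, ticks were knocked down and heated at 45-50° C. for up to 5 min. Those unable to climb away were counted dead or moribund, and efficacy ran from 0% to 100%.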

Tetranychus urticae = Tetranychus urticae spray test, OP-resistant; settings: application rate 100 g/ha; after 6 days
How it was run: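 Bean leaf discs (Phaseolus vulgaris) carrying all stages of OP-resistant mites are sprayed with compound formulated in solvent and emulsifier-containing water. Efficacy (% mites killed) is scored after 6 days.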

Musca domestica = Musca domestica test; settings: application rate 100 ppm; adult houseflies; after 2 days
How it was run: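 Compound dissolved in DMSO (10 mg per 0.5 ml) and diluted with water to the test concentration. Sponges soaked with sugar solution plus formulation were offered to 10 adult houseflies per vessel. Mortality (% kill, 100% = all dead, 0% = none) scored after 2 days.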

Myzus persicae = Myzus persicae spray test; settings: application rate 100 g/ha; after 6 days
Procedure: Myzus persicae—Spray Test
To produce an appropriate active ingredient formulation, 1 part by weight of active ingredient is dissolved using the specified parts by weight of solvent and made up with water containing an emulsifier concentration of 1000 ppm until the desired concentration is attained. To produce further test concentrations, the preparation is diluted with emulsifier-containing water.
Discs of Chinese cabbage leaves (Brassica pekinensis) infested by all stages of the green peach aphid (Myzus persicae) are sprayed with an active ingredient formulation of the desired concentration.
After 6 days, efficacy in % is determined. 100% means that all the aphids have been killed; 0% means that none of the aphids have been killed.

Spodoptera frugiperda = Spodoptera frugiperda spray test; settings: application rate 100 g/ha; caterpillars; after 7 days
How it was run: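 Maize leaf discs were sprayed with compound formulated in solvent plus water containing 1000 ppm emulsifier, dried, then infested with Spodoptera frugiperda caterpillars. Efficacy in % mortality was scored after 7 days (100% all killed, 0% none).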

Ctenocephalides felis [1] = assay: Ctenocephalides felis in vitro contact test with adult cat fleas; settings: application rate 5 μg/cm^2 (500 g/ha); after 48 h; fleas dead or moribund
How it was run: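 Test tubes were coated with 250 μl acetone solution of compound, giving 5 μg/cm^2 at 900 ppm, then dried and stocked with 5-10 adult cat fleas. After 48 h at room temperature and ambient humidity, dead or moribund fleas were counted; efficacy given as % (100% = all dead or moribund).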

Lucilia cuprina = Lucilia cuprina test; settings: application rate 100 ppm; L1 larvae; after 2 days
How it was run: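 About 20 L1 larvae placed in vessels with minced horsemeat treated with compound (DMSO concentrate diluted in water) at the desired concentration. Kill (%) scored after 2 days; 100% means all larvae dead, 0% none.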

Phaedon cochleariae = Phaedon cochleariae spray test; settings: application rate 100 g/ha; larvae; after 7 days
How it was run: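 Chinese cabbage leaf discs were sprayed with the compound formulated in water containing 1000 ppm emulsifier. After drying, they were infested with mustard beetle larvae. Efficacy was scored as % larvae killed after 7 days (100% = all dead, 0% = none).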

Boophilus microplus = Boophilus microplus injection test; settings: application rate 20 μg/animal; injection into abdomen; assessed after 7 days
How it was run: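 Read-out is % efficacy from fertile egg laying at 7 days: 100% means no tick laid fertile eggs, 0% means all eggs fertile. Each of 5 engorged adult females received 1 μl of DMSO test solution injected abdominally.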

Ctenocephalides felis [2] = assay: Ctenocephalides felis oral test; settings: application rate 100 ppm in citrated cattle blood; after 2 days
How it was run: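 Compound dissolved in DMSO (10 mg in 0.5 ml stock) and diluted with citrated cattle blood to test concentration. About 20 unfed adult fleas fed on the treated blood through a parafilm membrane. Kill (%) scored after 2 days; 100% = all fleas dead.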

[3] = system: Boophilus microplus Parkhurst strain, SP-resistant; assay: Boophilus microplus dip test; settings: application rate 100 ppm, assessed after 7 days
Procedure: Boophilus microplus—Dip Test
Test animals: cattle ticks (Boophilus microplus) Parkhurst strain, SP-resistant
Solvent: dimethyl sulphoxide
10 mg of active ingredient are dissolved in 0.5 ml of dimethyl sulphoxide. For the purpose of producing a suitable formulation, the active ingredient solution is diluted with water to the concentration desired in each case.
This active ingredient formulation is pipetted into tubes. 8-10 adult engorged female cattle ticks (Boophilus microplus) are transferred into a further tube with holes. The tube is immersed into the active ingredient formulation, and all the ticks are completely wetted. After the liquid has run out, the ticks are transferred on filter discs into plastic dishes and stored in a climate-controlled room.
Efficacy is assessed after 7 days by laying of fertile eggs. Eggs which are not visibly fertile are stored in a climate-controlled cabinet until the larvae hatch after about 42 days. An efficacy of 100% means that none of the ticks has laid any fertile eggs; 0% means that all the eggs are fertile.

SMILES	efficacy (Rhipicephalus sanguineus) [%]	efficacy (Tetranychus urticae) [%]	efficacy (kill in %) (Musca domestica) [%]	efficacy (Myzus persicae) [%]	efficacy (Spodoptera frugiperda) [%]	efficacy (Ctenocephalides felis [1]) [%]	efficacy (kill in %) (Lucilia cuprina) [%]	efficacy (Phaedon cochleariae) [%]	efficacy (laying of fertile eggs) (Boophilus microplus) [%]	efficacy (kill in %) (Ctenocephalides felis [2]) [%]	efficacy (laying of fertile eggs) [3] [%]
Cn1nc(C(F)(F)C(F)(F)F)c(C(F)(F)F)c1-n1cc(-c2cccc(NC(=O)c3ccc(F)cc3)c2)cn1 [Example 1-003]	100	100	100	90	100	100	100	100	100	100	
Cn1nc(C(F)(F)C(F)(F)F)c(C(F)(F)F)c1-n1cc(-c2cccc(NC(=O)c3ccncc3F)c2)cn1 [Example 1-004]	100	100	100		100	100	100	100	100	100	100
Cn1nc(C(F)(F)C(F)(F)F)c(C(F)(F)F)c1-n1cc(-c2cccc(NC(=O)c3ccnc(Cl)c3)c2)cn1 [Example 1-006]		100	100	100	100	100	100	100	100	100	
Cn1nc(C(F)(F)C(F)(F)F)c(C(F)(F)F)c1-n1cc(-c2ccc(F)c(NC(=O)c3ncccn3)c2)cn1 [Example 1-036]	100		100	100	100	100	100	100	100	100	
CN(C(=O)c1ccc(F)cc1)c1cc(-c2cnn(-c3c(C(F)(F)F)c(C(F)(F)C(F)(F)F)nn3C)c2)ccc1F [Example 1-037]			90		100	100	100	100	100	100	80
COc1cccc(C(=O)Nc2cc(-c3cnn(-c4c(C(F)(F)F)c(C(F)(F)C(F)(F)F)nn4C)c3)ccc2F)c1 [Example 1-042]	100	100					100	100	100	100	90
Cn1nc(C(F)(F)C(F)(F)F)c(C(F)(F)F)c1-n1cc(-c2ccc(F)c(NC(=O)c3cccs3)c2)cn1 [Example 1-049]	100		80			100	100		100	100	100
Cc1ccc(C(=O)Nc2cc(-c3cnn(-c4c(C(F)(F)F)c(C(F)(F)C(F)(F)F)nn4C)c3)ccc2F)cc1 [Example 1-060]	100	100			83	80	100	100	100	100	100
Cn1nc(C(F)(F)C(F)(F)F)c(C(F)(F)F)c1-n1cc(-c2ccc(F)c(NC(=O)c3cccc(F)c3)c2)cn1 [Example 1-073]	100	100	90		100	100	100	100	100	100	100
Cc1cccc(C(=O)Nc2cc(-c3cnn(-c4c(C(F)(F)F)c(C(F)(F)C(F)(F)F)nn4C)c3)ccc2F)c1C [Example 1-080]									100	95	100
Cn1nc(C(F)(F)C(F)(F)F)c(C(F)(F)F)c1-n1cc(-c2ccc(F)c(NC(=O)c3cncc(F)c3)c2)cn1 [Example 1-086]	100	90	100	100	100	100	100	100	100	100	
COc1cc(C(=O)Nc2cc(-c3cnn(-c4c(C(F)(F)F)c(C(F)(F)C(F)(F)F)nn4C)c3)ccc2F)ccc1F [Example 1-094]	100	100	100		83	100	100	100	100	100	100
Cn1nc(C(F)(F)C(F)(F)F)c(C(F)(F)F)c1-n1cc(-c2cnc(Cl)c(NC(=O)c3ccc(F)cc3)c2)cn1 [Example 2-001]	100	100	100		100		100	100	100	100	80
